According to patent US20050282859A1, “Dual acting SNRI-NMDA antagonists for the treatment of genitourinary disorders” (priority 2004, published 2005):
“Also recorded” adds a separate entry of the source. Read-outs that look alike come from different tables or passages of the source.

How the values were obtained:
[1] = system: acetic acid-induced bladder irritation; conditions: cat, S-norfluoxetine at 3 and 10 mg/kg; cited from earlier work
[2] = system: acetic acid-induced bladder irritation; test: Acute rat dilute acetic acid model (cystometry); format: in vivo; conditions: acetic acid infusion compared to vehicle
Source text: The acute models described below provide methods for evaluating active agents in the treatment of overactive bladder. Briefly, the models provide a method for reducing the bladder capacity of test animals by infusing either protamine sulfate and potassium chloride (See, Chuang, Y. C. et al., Urology 61(3): 664-670 (2003)) or dilute acetic acid (See, Thor, K. and Katofiasc., M., 1995, J. Pharmacol. Exptl. Ther., 274:1014-1024; Sasaki, K. et al, J. Urol. 168(3) 1259-1264 (2002)) into the bladder. The infusates cause irritation of the bladder and a reduction in bladder capacity by selectively activating bladder afferent fibers, such as C-fiber afferents. Following irritation of the bladder, an active agent (drug) can be administered and the ability of the active agent to reverse (partially or totally) the reduction in bladder capacity resulting from the irritation, can be determined. Substances which reverse the reduction in bladder capacity can be used in the treatment of overactive bladder. Female rats (250-275 g) were anesthetized with urethane (1.2 g/kg) and a saline-filled jugular catheter (PE-50) was inserted for intravenous drug administration and a heparinized (100 units/ml) saline-filled carotid catheter (PE-50) was inserted for blood pressure monitoring. Via a midline abdominal incision from xyphoid to navel, a PE-50 catheter was inserted into the bladder dome for bladder filling and pressure recording. The abdominal cavity was moistened with saline and closed by covering with a thin plastic sheet in order to maintain access to the bladder for filling cystometry emptying purposes. […] Data for bicifadine were analyzed by non-parametric ANOVA for repeated measures (Friedman Test) with Dunn's Multiple Comparison test for cumulative dose-response studies. […] Additionally, % voiding efficiency was calculated using the following formula: ([…]/(Single Cystometrogram Bladder Capacity))*100 for bicifadine.

[3] = system: acetic acid-induced bladder irritation; test: Acute cat dilute acetic acid model (cystometry, EUS-EMG); format: in vivo; conditions: for bladder capacity: intravenous, during acetic acid infusion
Method: The ability of bicifadine and milnacipran, exemplary dual acting SNRI-NMDA antagonists, to reverse the reduction in bladder capacity observed following continuous infusion of dilute acetic acid in a cat model was tested. The cat model is a commonly used model for overactive bladder (Thor and Katofiasc, 1995, J. Pharmacol. Exptl. Ther. 274: 1014-24). Female cats (2.2-3 kg B W Harlan) were anesthetized with 4% isoflurane for induction followed by intravenous administration of α-chloralose (68-75 mg/kg). An i.v. catheter was inserted in the radial vein for drug administration. A heparinized (100 units/ml) saline-filled catheter (PE-90) was inserted into the carotid artery to monitor blood pressure. A trachea tube was place to monitor respiration. Via a midline lower abdominal incision, a modified 16 gauge i.v. catheter was inserted into the bladder dome for bladder filling and pressure recording. The abdominal cavity was moistened with saline and closed by covering with a thin plastic sheet in order to maintain access to the bladder for emptying purposes. Fine silver or stainless steel wire electrodes were inserted intraurethrally into the external urethral sphincter (EUS) for electromyography (EMG). Saline was continuously infused at a rate of 0.5-1 ml(s)/min via the bladder catheter for 60 minutes to obtain baseline of lower urinary tract activity (continuous cystometry; CMG). Following the control period, a 0.5% acetic acid (AA) solution in saline was infused into the bladder at the same flow rate to induce bladder irritation. Following 30 minutes of AA infusion, in one example, 1-2 vehicle injections were made at 30 minute intervals to determine vehicle effects, if any. Subsequently, increasing doses of bicifadine (0.1, 0.3, 1, 3 and 10 mg/kg) were administered intravenously at 30-60 minute intervals in order to construct a cumulative dose-response relationship (n=6). At the end of the control saline cystometry period, the vehicle, and 15 minutes following each subsequent treatment, the infusion pump was stopped, the bladder was emptied by fluid withdrawal via the infusion catheter and a single filling cystometrogram was performed at the same flow rate in order to determine changes in bladder capacity caused by the irritation protocol and subsequent drug administration. In a second example, subsequent to AA infusion, a vehicle injection was made to ensure that there were no vehicle effects. 10 mg/kg of milnacipran was then administered intravenously. The external urethral EMG activity, bladder pressure, and volume voided was measured during saline infusion, during AA infusion, and subsequent to milnacipran administration. Data for bicifadine were analyzed by non-parametric ANOVA for repeated measures (Friedman Test) with Dunn's Multiple Comparison test for cumulative dose-response studies. All comparisons were made from the last vehicle measurement. P<0.050 was considered significant.

[4] = i.v. cumulative doses 0.1-10 mg/kg

CNCCC(Oc1ccccc1SC)c1ccccc1 (stereo not drawn) [thionisoxetine]
bladder capacity [1]: no effects | urethral sphincter electromyographic (EMG) activity [1]: no effects

COc1ccc(C(CN(C)C)C2(O)CCCCC2)cc1 (stereo not drawn) [venlafaxine]
bladder capacity [1]: markedly increases | urethral sphincter electromyographic (EMG) activity [1]: markedly increases

NCC[C@H](Oc1ccc(C(F)(F)F)cc1)c1ccccc1 [S-norfluoxetine]
bladder capacity [1]: small increases | urethral sphincter electromyographic (EMG) activity [1]: small increases

CNCC[C@H](Oc1cccc2ccccc12)c1cccs1 [duloxetine]
bladder capacity [1]: markedly increases | urethral sphincter electromyographic (EMG) activity [1]: markedly increases

Cc1ccc(C23CNCC2C3)cc1 (stereo not drawn) [bicifadine]
increase in bladder capacity ([2]; 1-10 mg/kg i.v. cumulative doses): ~100% | effect on bladder capacity ([2]; all doses (1, 3, 10 mg/kg i.v.)): had an effect on the bladder capacity | voiding efficiency ([2]; increasing i.v. doses): not effected; also recorded: basically unaffected | increase in bladder capacity ([3]; 1-10 mg/kg i.v. cumulative doses, acetic acid infusion compared to vehicle): 3 fold | increase in voiding efficiency ([3]; 1-10 mg/kg i.v., acetic acid infusion compared to vehicle): ~10% | increases in sphincter EMG during bladder filling ([3]; i.v. bicifadine, n=6 experiments): seen in two of the six experiments | arterial pressure [3, 4]: No significant decrease; also recorded: No significant changes | heart rate [3, 4]: No significant changes | contraction frequency (bladder overactivity) during continuous cystometry ([3]; i.v., 1-10 mg/kg, acetic acid infusion): reduced bladder overactivity; also recorded: dose dependent decrease from 1-10 mg/kg but this was not significant | bladder capacity [3]: significant increase | sphincter EMG activity during micturition contractions (bladder-sphincter synergy) ([3]; the two experiments with increased sphincter EMG): inhibited during micturition contractions

CCN(CC)C(=O)C1(c2ccccc2)CC1CN (stereo not drawn) [milnacipran]
sphincter EMG activity ([3]; 10 mg/kg i.v., acetic acid infusion): unexpected increase | increase in bladder capacity ([3]; 10 mg/kg i.v., acetic acid infusion compared to control): ~2 fold | increase in sphincter EMG activity, Root Mean Square ([3]; 10 mg/kg i.v., during the period following the bladder contraction): 82.5 millivolts | increase in sphincter EMG activity, Root Mean Square ([3]; 10 mg/kg i.v., during the period of bladder filling): 19.4 millivolts | bladder capacity [3]: significant increase
